Measured values as given in patent US12084444B2, “Spiro-lactam NMDA modulators and methods of using same” (Tenacia Biotechnology (Hong Kong) Co., Limited, priority 2016, dated 2024).

Columns and labels:
[1] = test system: rats; experiment: Positive emotional learning (PEL) test, 50-kHz ultrasonic vocalizations; type: in vivo, rat; settings: dose range 0.001-1 mg/kg, orally; tested one hour after administration
Method: Experiments were conducted as described in Burgdorf et al., “The effect of selective breeding for differential rates of 50-kHz ultrasonic vocalizations on emotional behavior in rats,” Devel. Psychobiol., 51:34-46 (2009). Rat 50-kHz ultrasonic vocalization (hedonic USVs) is a validated model for the study of positive affective state and is best elicited by rough-and-tumble play.
The PEL assay measures the acquisition of positive (hedonic) 50-kHz ultrasonic vocalizations (USVs) to a social stimulus, heterospecific rough and tumble play stimulation. Heterospecific rough-and-tumble play stimulation was administered by the experimenter's right hand. […] High frequency ultrasonic vocalizations (USVs) were recorded and analyzed by sonogram with Avasoft SASlab Pro (Germany) as previously described by Burgdorf et al., “Positive emotional learning is regulated in the medial prefrontal cortex by GluN2B-containing NMDA receptors,” Neuroscience, 192:515-523 (2011). Frequency modulated 50-kHz USVs that occurred during each of the no-stimulation periods were quantified to measure PEL. […] Positive emotional learning was measured during the conditioned stimulus (CS) trials preceding the tickle unconditioned stimulus (UCS) trials. […]

[2] = Oral pharmacokinetics (plasma, brain, CSF); type: in vivo, Sprague Dawley rats; settings: rat, per os, 10 mg/kg
Method: In another experiment, Sprague Dawley rats were dosed per os using a normal saline formulation containing 10 mg/kg of the compounds identified in the table below. Plasma, brain, and CSF samples were analyzed at various time points over a 24 hour period. The table below summarizes the results of the oral pharmacokinetics.

[3] = test system: Sprague Dawley rats; experiment: Bennett model of mechanical analgesia (sciatic nerve chronic constriction injury); type: in vivo
Method: The Bennett model of mechanical analgesia is used to assess the analgesic effects of compounds as measured by paw withdrawal threshold. Bennett G J, Xie Y K, “A peripheral mononeuropathy in rat that produces disorders of pain sensation like those seen in man,” Pain 33:87-107, 1988. […] Vehicle animals receive the surgery and then receive vehicle rather than test compound. Animals were tested 1 hr, 24 h and 1 wk post-test compound or vehicle administration.
Male 2-3 month old Sprague Dawley rats were used. Harlan was the supplier for all studies. Rats were housed in Lucite cages with aspen wood chip bedding, maintained on a 12:12 light:dark cycle (lights on at 5 AM), and given ad libitum access to Purina lab chow (USA) and tap water throughout the study.
Rats were anesthetized using inhaled isoflurane (2.5%). Sciatic nerve chronic constriction nerve injury surgery was performed as previously described (Bennett and Xie, 1988). An incision (˜1.5 cm in length) was made with a scalpel blade dorsally through skin on the right hind limb, parallel and posterior to femur. Using a small pointed hemostat, the biceps femoris and gluteus superficialis muscles were separated. Using curved blunt forceps, the common sciatic nerve was isolated and exposed. For the mechanical analgesia studies, the whole sciatic nerve was ligated. Using hemostats/forceps and chromic gut (5-0), the nerve was loosely ligated with a square knot; 3 ligatures, 1 mm apart were placed on the nerve. […] Testing occurred approximately 2 weeks post-surgery.
During testing, rats were acclimated to the surface of a suspended wire mesh grid (1 cm×1 cm, with the wire being 0.3 cm in diameter) for 15-20 min. Starting from the smallest, each Von Frey filament was pressed perpendicularly to the plantar surface of the affected (ipsilateral) hind paw until slightly bent and then held for 6 second. If an obvious hind paw withdrawal or a flinching behavior immediately after the withdrawal of the filament was not observed, the next larger filament was used in the same manner. In case of a response, a lower filament was used. This was repeated until six responses were collected.
For all studies, animals were baselined prior to study start to test for allodynia (defined as a paw withdrawal threshold under 5). A subset of animals was tested with gabapentin (150 mg/kg, PO) to ensure at least 50% analgesia. Once it was confirmed animals were ready for study initiation, animals were balanced across groups. All study investigators were blind to treatment conditions. Animals were dosed with 0.1, 1, 10, or 30 mg/kg of test compound via oral gavage (PO), control sets of animals were dosed with gabapentin (150 mg/kg, PO) or vehicle (0.5% Na-CMC in 0.9% sterile saline, PO). Testing occurred 1 h post-dosing with animals retested 24 hrs and 1 week post-dosing. The percent analgesia calculations for each animal were made using the following equation: % analgesia=[(log(x)−y)/((log (z)−y)]*100, where x=the paw withdrawal threshold for the drug-treated animal in grams, y=the average of the log(x) values for the vehicle treated group, and z=the paw withdrawal threshold for naïve animals in grams (historical value of 15 used). The results for Compound AA-2, where the percentage of analgesia is measured at 1 hour, 24 hours, and 1 week after compound administration are as follows: for 0.1 mg/kg dose: 22.3% at 1 h, 1.6% at 24 h, and 2.3% at 1 wk; for 1 mg/kg dose: 19.2% at 1 h, 10.7% at 24 h, and 11.0% at 1 wk; for 10 mg/kg dose: 38.1% at 1 h, 24.3% at 24 h, and 41.4% at 1 wk; and for 30 mg/kg dose: 24.4% at 1 h, 8.7% at 24 h, and 34.5% at 1 wk.

AUC(0-t) ([2]; Sprague Dawley, plasma, po): 17.3 µg·h/mL
bioavailability ([2]; Sprague Dawley, plasma, po): 100%
Tmax ([2]; Sprague Dawley, plasma, po, normal saline): 15 min
Cmax ([2]; Sprague Dawley, po, plasma): 11.3 µg/mL
CSF Cmax ([2]; CSF): 1.4763 µg/mL
Brain Cmax ([2]; brain): 1.1072 µg/mL
Compound: COc1ccc(CN2C[C@@]3(CCNC(=O)C3)C2=O)cc1 [Compound AA-2, 2-(4-methoxybenzyl)-2,7-diazaspiro[3.5]nonane-1,6-dione]
maximum effect, mean number of 50 kHz USVs per 15 seconds [1]: 10.1-20 50 kHz USVs per 15 seconds
% analgesia ([3]; 0.1 mg/kg PO, 1 wk): 2.3%
% analgesia ([3]; 0.1 mg/kg PO, 1 h): 22.3%
% analgesia ([3]; 0.1 mg/kg PO, 24 h): 1.6%
% analgesia ([3]; 1 mg/kg PO, 1 wk): 11.0%
% analgesia ([3]; 1 mg/kg PO, 1 h): 19.2%
% analgesia ([3]; 1 mg/kg PO, 24 h): 10.7%
% analgesia ([3]; 10 mg/kg PO, 1 wk): 41.4%
% analgesia ([3]; 10 mg/kg PO, 1 h): 38.1%
% analgesia ([3]; 10 mg/kg PO, 24 h): 24.3%
% analgesia ([3]; 30 mg/kg PO, 1 wk): 34.5%
% analgesia ([3]; 30 mg/kg PO, 1 h): 24.4%
% analgesia ([3]; 30 mg/kg PO, 24 h): 8.7%
